Among the data in patent US7884127B2, “Inhibitors of cyclin dependent kinases and their use” (Pirimal Life Sciences Ltd., priority 2002, dated 2011) are melting point values, retold here.

One may read the melting point as the temperature of the solid-liquid transition. In the case of `CN1CC[C@@H](c2c(O)cc(O)c3c(=O)cc(-c4cc(O)ccc4Cl)oc23)[C@@H]1CO.Cl`, the melting point lay in the range of 189 to 190 °C.
Regarding `COc1cc(OC)c2c(=O)cc(-c3ccccc3Cl)oc2c1[C@@H]1CCN(C)[C@H]1CO` (racemic) [Example 7, (±)-trans-2-(2-Chloro-phenyl)-8-(2-hydroxymethyl-1-methyl-pyrrolidin-3-yl)-5,7-dimethoxy-chromen-4-one], the melting point is 95 to 97 °C.
Turning to `CN1CC[C@@H](c2c(O)cc(O)c3c(=O)cc(-c4cc(F)ccc4Cl)oc23)[C@@H]1CO` (racemic) [Example 23, (±)-trans-2-(2-Chloro-5-fluoro-phenyl)-5,7-dihydroxy-8-(2-hydroxymethyl-1-methyl-pyrrolidin-3-yl)-chromen-4-one], the melting point fell in the range of 253 to 254 °C.
The value for `CN1CC[C@@H](c2c(O)cc(O)c3c(=O)cc(-c4cc(F)ccc4Cl)oc23)[C@@H]1CO.CS(=O)(=O)O` (racemic) [Example 25, (±)-trans-2-(2-Chloro-5-fluoro-phenyl)-5,7-dihydroxy-8-(2-hydroxymethyl-1-methyl-pyrrolidin-3-yl)-chromen-4-one methane sulfonate] was 192 to 193 °C; that for `COc1cc(OC)c2c(=O)cc(-c3ccc(C(F)(F)F)cc3)oc2c1[C@@H]1CCN(C)[C@H]1CO` (racemic) [Example 62, (±)-trans-8-(2-Hydroxymethyl-1-methyl-pyrrolidin-3-yl)-5,7-dimethoxy-2-(4-trifluoromethyl-phenyl)-chromen-4-one] was 114 to 115 °C; that for `CN1CC[C@@H](c2c(O)cc(O)c3c(=O)cc(-c4ccc(C(F)(F)F)cc4)oc23)[C@@H]1CO` (racemic) [Example 63, (±)-trans-5,7-Dihydroxy-8-(2-hydroxymethyl-1-methyl-pyrrolidin-3-yl)-2-(4-trifluoromethyl-phenyl)-chromen-4-one] was 238 °C.
For `COc1cc(OC)c2c(=O)cc(-c3ccc(C#N)cc3)oc2c1[C@@H]1CCN(C)[C@H]1CO` (racemic) [Example 81, (±)-trans-4-[8-(2-Hydroxymethyl-1-methyl-pyrrolidin-3-yl)-5,7-dimethoxy-4-oxo-4H-chromen-2-yl]-benzonitrile], the melting point lay in the range of 214 to 216 °C.
`CN1CC[C@@H](c2c(O)cc(O)c3c(=O)cc(-c4ccccc4O)oc23)[C@@H]1CO` (racemic) [Example 96, (±)-trans-5,7-Dihydroxy-8-(2-hydroxymethyl-1-methyl-pyrrolidin-3-yl)-2-(2-hydroxy-phenyl)-chromen-4-one] showed a melting point of 212 to 213 °C.
Consider `CNc1ccc(Cl)c(-c2cc(=O)c3c(O)cc(O)c([C@@H]4CCN(C)[C@H]4CO)c3o2)c1` (racemic) [Example 102, (±)-trans-2-(2-Chloro-5-methylamino-phenyl)-5,7-dihydroxy-8-(2-hydroxymethyl-1-methyl-pyrrolidin-3-yl)-chromen-4-one], for which the melting point was in the range of 208 to 210 °C.
Regarding `CN1CC[C@@H](c2c(O)cc(O)c3c(=O)cc(-c4ccc(O)cc4Cl)oc23)[C@@H]1CO` (racemic) [Example 104, (±)-trans-2-(2-Chloro-4-hydroxy-phenyl)-5,7-dihydroxy-8-(2-hydroxymethyl-1-methyl-pyrrolidin-3-yl)-chromen-4-one], the melting point was above 300 °C.
`CN1CC[C@@H](c2c(O)cc(O)c3c(=O)cc(-c4ccccc4Cl)oc23)[C@@H]1CN` (racemic) [Example 109, (±)-trans-8-(2-Aminomethyl-1-methyl-pyrrolidin-3-yl)-2-(2-chloro-phenyl)-5,7-dihydroxy-chromen-4-one] yielded a melting point of 218 to 219 °C.
Take `CN1CC[C@@H](c2c(O)cc(O)c3c(=O)cc(-c4ccccc4Cl)oc23)[C@@H]1CC#N` (racemic) [Example 111, (±)-trans-{3-[2-(2-Chloro-phenyl)-5,7-dihydroxy-4-oxo-4H-chromen-8-yl]-1-methyl-pyrrolidin-2-yl}-acetonitrile]: the melting point was in the range of 107 to 108 °C.
As to `CN1CC[C@@H](c2c(O)cc(O)c3c(=O)cc(-c4ccccc4Cl)oc23)[C@@H]1Cn1ccnc1` (racemic) [Example 113, (±)-trans-2-(2-Chloro-phenyl)-5,7-dihydroxy-8-(2-imidazol-1-ylmethyl-1-methyl-pyrrolidin-3-yl)-chromen-4-one], the melting point was 249 to 250 °C.
On to `CN1CC[C@@H](c2c(O)cc(O)c3c(=O)cc(-c4ccccc4Cl)oc23)[C@@H]1CS` (racemic) [Example 115, (±)-trans-2-(2-Chloro-phenyl)-5,7-dihydroxy-8-(2-mercaptomethyl-1-methyl-pyrrolidin-3-yl)-chromen-4-one], for which the melting point was in the range of 205 to 206 °C.
Turning to `CCCN1CC[C@@H](c2c(O)cc(O)c3c(=O)cc(-c4ccccc4Cl)oc23)[C@@H]1CO` (racemic) [Example 132, (±)-trans-2-(2-Chloro-phenyl)-5,7-dihydroxy-8-(2-hydroxymethyl-1-propyl-pyrrolidin-3-yl)-chromen-4-one], the melting point was in the range of 94 to 96 °C.
`COc1cc(OC)c2c(=O)cc(-c3ccccc3Cl)oc2c1[C@@H]1CCN(C)[C@H]1C(=O)O` (racemic) [Example 143, (±)-trans-3-[2-(2-Chloro-phenyl)-5,7-dimethoxy-4-oxo-4H-chromen-8-yl]-1-methyl-pyrrolidine-2-carboxylic acid] returned a melting point of 165 to 167 °C.
The compound `CN1CC[C@@H](c2c(O)cc(O)c3c(=O)cc(-c4ccccc4Cl)oc23)[C@@H]1C(=O)O` (racemic) [Example 144, (±)-trans-3-[2-(2-Chloro-phenyl)-5,7-dihydroxy-4-oxo-4H-chromen-8-yl]-1-methyl-pyrrolidine-2-carboxylic acid] yielded a melting point of 295 to 297 °C.
Take `COc1cc(OC)c2c(=O)cc(-c3ccccc3Cl)oc2c1[C@@H]1CCN(C)[C@H]1CO` [Example 13, (+)-trans-2-(2-Chloro-phenyl)-8-(2-hydroxymethyl-1-methyl-pyrrolidin-3-yl)-5,7-dimethoxy-chromen-4-one]: the melting point was 91 to 93 °C.
`CN1CC[C@@H](c2c(O)cc(O)c3c(=O)cc(-c4ccccc4I)oc23)[C@@H]1CO` [Example 19, (+)-trans-5,7-Dihydroxy-8-(2-hydroxymethyl-1-methyl-pyrrolidin-3-yl)-2-(2-iodo-phenyl)-chromen-4-one]: the melting point was 233 to 235 °C.
Take `CN1CC[C@@H](c2c(O)cc(O)c3c(=O)cc(-c4ccccc4F)oc23)[C@@H]1CO` [Example 21, (+)-trans-2-(2-Fluoro-phenyl)-5,7-dihydroxy-8-(2-hydroxymethyl-1-methyl-pyrrolidin-3-yl)-chromen-4-one]: the melting point lay in the range of 206 to 208 °C.
The compound `Cc1ccc(Cl)c(-c2cc(=O)c3c(O)cc(O)c([C@@H]4CCN(C)[C@H]4CO)c3o2)c1` [Example 38, (+)-trans-2-(2-Chloro-5-methyl-phenyl)-5,7-dihydroxy-8-(2-hydroxymethyl-1-methyl-pyrrolidin-3-yl)-chromen-4-one] had a melting point of 206 to 208 °C.
`CN1CC[C@@H](c2c(O)cc(O)c3c(=O)cc(-c4ccc([N+](=O)[O-])cc4Br)oc23)[C@@H]1CO` [Example 42, (+)-trans-2-(2-Bromo-4-nitro-phenyl)-5,7-dihydroxy-8-(2-hydroxymethyl-1-methyl-pyrrolidin-3-yl)-chromen-4-one] had a melting point of 186 °C.
Take `CN1CC[C@@H](c2c(O)cc(O)c3c(=O)cc(-c4ccccc4)oc23)[C@@H]1CO` [Example 57, (+)-trans-5,7-Dihydroxy-8-(2-hydroxymethyl-1-methyl-pyrrolidin-3-yl)-2-phenyl-chromen-4-one]: the melting point lay in the range of 212 to 215 °C.
Consider `Cc1cc(C#N)ccc1-c1cc(=O)c2c(O)cc(O)c([C@@H]3CCN(C)[C@H]3CO)c2o1` [Example 60, (+)-trans-4-[5,7-Dihydroxy-8-(2-hydroxymethyl-1-methyl-pyrrolidin-3-yl)-4-oxo-4H-chromen-2-yl]-3-methyl-benzonitrile], for which the melting point lay within 145 to 147 °C.
Turning to `CN1CC[C@@H](c2c(O)cc(O)c3c(=O)cc(-c4ccc(C(F)(F)F)cc4)oc23)[C@@H]1CO` [Example 65, (+)-trans-5,7-Dihydroxy-8-(2-hydroxymethyl-1-methyl-pyrrolidin-3-yl)-2-(4-trifluoromethyl-phenyl)-chromen-4-one], the melting point fell in the range of 235 to 237 °C.
As for `CN1CC[C@@H](c2c(O)cc(O)c3c(=O)cc(-c4cccs4)oc23)[C@@H]1CO` [Example 68, (+)-trans-5,7-Dihydroxy-8-(2-hydroxymethyl-1-methyl-pyrrolidin-3-yl)-2-thiophen-2-yl-chromen-4-one], the melting point is 218 to 220 °C.
Consider `CN1CC[C@@H](c2c(O)cc(O)c3c(=O)cc(-c4cccc(F)c4)oc23)[C@@H]1CO` [Example 76, (+)-trans-2-(3-Fluoro-phenyl)-5,7-dihydroxy-8-(2-hydroxymethyl-1-methyl-pyrrolidin-3-yl)-chromen-4-one], for which the melting point was in the range of 218 to 220 °C.
The value for `CN1CC[C@@H](c2c(O)cc(O)c3c(=O)cc(-c4cccnc4Cl)oc23)[C@@H]1CO` [Example 90, (+)-trans-2-(2-Chloro-pyridin-3-yl)-5,7-dihydroxy-8-(2-hydroxymethyl-1-methyl-pyrrolidin-3-yl)-chromen-4-one] was 125 to 127 °C.
For the compound `CN1CC[C@@H](c2c(O)cc(O)c3c(=O)cc(-c4ccc([N+](=O)[O-])cc4)oc23)[C@@H]1CO` [Example 92, (+)-trans-5,7-Dihydroxy-8-(2-hydroxymethyl-1-methyl-pyrrolidin-3-yl)-2-(4-nitro-phenyl)-chromen-4-one], the melting point is 275 to 277 °C.
The result for `CN1CC[C@@H](c2c(O)cc(O)c3c(=O)cc(-c4ccc(N)cc4)oc23)[C@@H]1CO` [Example 94, (+)-trans-2-(4-Amino-phenyl)-5,7-dihydroxy-8-(2-hydroxymethyl-1-methyl-pyrrolidin-3-yl)-chromen-4-one] reads 172 to 174 °C; that for `CN1CC[C@@H](c2c(O)cc(O)c3c(=O)cc(-c4ccc(C#N)cc4Cl)oc23)[C@@H]1CO` [Example 98, (+)-trans-3-Chloro-4-[5,7-dihydroxy-8-(2-hydroxymethyl-1-methyl-pyrrolidin-3-yl)-4-oxo-4H-chromen-2-yl]-benzonitrile], 237 to 239 °C.
